Data published in patent US12281122B1, “PI3K inhibitors” (Cogent Biosciences, Inc., priority 2023, dated 2025).
pIC50: −log10 of the molar value.

Assays:
[1] = test system: T47D (PI3Kα-H1047R) cell line; assay: HTRF phospho-AKT(S473) cell assay in T47D cells; assay type: cell-based, human
Method in brief: (§1)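 HTRF read-out of phospho-AKT(S473) in lysates gave IC50 values after 2 h compound exposure at 37° C. Dose series was 12 points at 1:3, topping at 5 μM for T47D and 10 μM for SKBR3. Only SKBR3 received 70 ng/ml PDGF-BB during the last 15 minutes.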

[2] = test system: SKBR3 (PI3Kα-Wild Type) cell line; assay: HTRF phospho-AKT(S473) cell assay in SKBR3 cells; assay type: cell-based, human
Method in brief: as §1

[3] = Homo sapiens; HTRF phospho-AKT(S473), T47D (PI3Kα-H1047R) cells, 2 hours compound incubation
[4] = Homo sapiens, SK-BR-3; HTRF phospho-AKT(S473), SKBR3 (PI3Kα-Wild Type) cells, 2 hours compound incubation, PDGF-BB stimulated
[5] = Homo sapiens; T47D (PI3Kα-H1047R) cells, HTRF phospho-AKT(S473), 2 hours compound incubation
[6] = Homo sapiens, SK-BR-3; SKBR3 (PI3Kα-Wild Type) cells, HTRF phospho-AKT(S473), 2 hours compound incubation, PDGF-BB stimulated

SMILES	pIC50 [1, 3]	pIC50 [2, 4]	pIC50 [1, 5]	pIC50 [2, 6]
Cc1cc([C@@H](C)Nc2ccc(Cl)nc2C(=O)NS(C)(=O)=O)c2nc(N3CCC[C@@H](c4cnccn4)C3)n(C)c(=O)c2c1 (relative stereo) [Compound 618, 6-chloro-3-(((R)-1-(3,6-dimethyl-4-oxo-2-((R*)-3-(pyrazin-2-yl)piperidin-1-yl)-3,4-dihydroquinazolin-8-yl)ethyl)amino)-N-(methylsulfonyl) picolinamide]	6.30 to 6.60	5.30 to 6.00	–	–
Cc1cc([C@@H](C)Nc2ccc(Cl)nc2C(=O)NS(C)(=O)=O)c2nc(N3CCC(c4c(F)cnn4C4CC4)CC3)n(C)c(=O)c2c1 [Compound 455, (R)-6-chloro-3-((1-(2-(4-(1-cyclopropyl-4-fluoro-1H-pyrazol-5-yl)piperidin-1-yl)-3,6-dimethyl-4-oxo-3,4-dihydroquinazolin-8-yl)ethyl)amino)-N-(methylsulfonyl) picolinamide]	> 6.60	5.30 to 6.00	–	–
Cc1cc([C@@H](C)Nc2ccc(Cl)nc2C(=O)NS(C)(=O)=O)c2nc(N3C[C@@H]4[C@H](C3)[C@H]4c3nnc(C)o3)n(C)c(=O)c2c1 [Compound 654, 6-chloro-3-(((R)-1-(3,6-dimethyl-2-((1R,5S,6R)-6-(5-methyl-1,3,4-oxadiazol-2-yl)-3-azabicyclo[3.1.0]hexan-3-yl)-4-oxo-3,4-dihydroquinazolin-8-yl)ethyl)amino)-N-(methylsulfonyl) picolinamide]	> 6.60	5.30 to 6.00	–	–
Cc1cc([C@@H](C)Nc2ccc(Cl)nc2C(=O)NS(C)(=O)=O)c2nc(N3CCc4nn(C5COC5)cc4C3)n(C)c(=O)c2c1 [Compound 334, (R)-6-chloro-3-((1-(3,6-dimethyl-2-(2-(oxetan-3-yl)-2,4,6,7-tetrahydro-5H-pyrazolo[4,3-c]pyridin-5-yl)-4-oxo-3,4-dihydroquinazolin-8-yl)ethyl)amino)-N-(methylsulfonyl) picolinamide]	–	–	> 6.60	5.30 to 6.00
COc1cnc(C2CCN(c3nc4c([C@@H](C)Nc5ccc(Cl)nc5C(=O)NS(C)(=O)=O)cc(C)cc4c(=O)n3C)CC2)nc1 [Compound 487, (R)-6-chloro-3-((1-(2-(4-(5-methoxypyrimidin-2-yl)piperidin-1-yl)-3,6-dimethyl-4-oxo-3,4-dihydroquinazolin-8-yl)ethyl)amino)-N-(methylsulfonyl) picolinamide]	6.30 to 6.60	5.30 to 6.00	–	–
Cc1cc([C@@H](C)Nc2ccc(Cl)nc2C(=O)NS(C)(=O)=O)c2nc(N3CC[C@@H](Oc4ccnn4C)C3)n(C)c(=O)c2c1 [Compound 352, 6-chloro-3-(((R)-1-(3,6-dimethyl-2-((R)-3-((1-methyl-1H-pyrazol-5-yl)oxy)pyrrolidin-1-yl)-4-oxo-3,4-dihydroquinazolin-8-yl)ethyl)amino)-N-(methylsulfonyl) picolinamide]	–	–	> 6.60	5.30 to 6.00
Cc1cc([C@@H](C)Nc2ccc(Cl)nc2C(=O)NS(C)(=O)=O)c2nc(N3CCC(c4ccnn4CC(F)(F)F)CC3)n(C)c(=O)c2c1 [Compound 488, (R)-6-chloro-3-((1-(3,6-dimethyl-4-oxo-2-(4-(1-(2,2,2-trifloroethyl)-1H-pyrazol-5-yl)piperidin-1-yl)-3,4-dihydroquinazolin-8-yl)ethyl)amino)-N-(methylsulfonyl) picolinamide]	> 6.60	5.30 to 6.00	–	–
Cc1cc([C@@H](C)Nc2ccc(Cl)nc2C(=O)NS(C)(=O)=O)c2nc(-c3ccc4cn[nH]c4c3)n(C)c(=O)c2c1 [Compound 834, (R)-3-((1-(2-(1H-indazol-6-yl)-3,6-dimethyl-4-oxo-3,4-dihydroquinazolin-8-yl)ethyl)amino)-6-chloro-N-(methylsulfonyl) picolinamide]	6.00 to 6.30	5.30 to 6.00	–	–
Cc1cc([C@@H](C)Nc2ccc(Cl)nc2C(=O)NS(C)(=O)=O)c2nc(N3CC[C@@H](c4ccn(C)n4)CC3(C)C)n(C)c(=O)c2c1 (relative stereo) [Compound 324, 6-chloro-3-(((R)-1-(2-((R*)-2,2-dimethyl-4-(1-methyl-1H-pyrazol-3-yl)piperidin-1-yl)-3,6-dimethyl-4-oxo-3,4-dihydroquinazolin-8-yl)ethyl)amino)-N-(methylsulfonyl) picolinamide]	–	–	> 6.60	≤ 5.30
Cc1cc([C@@H](C)Nc2ccc(Cl)nc2C(=O)NS(C)(=O)=O)c2nc(N3C[C@H]4C[C@@H]3CN4c3ncc(Cl)cn3)n(C)c(=O)c2c1 [Compound 666, 6-chloro-3-(((R)-1-(2-((1R,4R)-5-(5-chloropyrimidin-2-yl)-2,5-diazabicyclo [2.2.1]heptan-2-yl)-3,6-dimethyl-4-oxo-3,4-dihydroquinazolin-8-yl)ethyl)amino)-N-(methylsulfonyl) picolinamide]	6.30 to 6.60	≤ 5.30	–	–
Cc1cc([C@@H](C)Nc2ccc(Cl)nc2C(=O)NS(C)(=O)=O)c2nc(N3CCC4(CCC(O)CC4)CC3)n(C)c(=O)c2c1 [Compound 275, (R)-6-chloro-3-((1-(2-(9-hydroxy-3-azaspiro[5.5]undecan-3-yl)-3,6-dimethyl-4-oxo-3,4-dihydroquinazolin-8-yl)ethyl)amino)-N-(methylsulfonyl) picolinamide]	–	–	> 6.60	≤ 5.30
CC(=O)N1CCC(c2ccc(-c3nc4c([C@@H](C)Nc5ccc(Cl)nc5C(=O)NS(C)(=O)=O)cc(C)cc4c(=O)n3C)c(F)c2)CC1 [Compound 780, (R)-3-((1-(2-(4-(1-acetylpiperidin-4-yl)-2-fluorophenyl)-3,6-dimethyl-4-oxo-3,4-dihydroquinazolin-8-yl)ethyl)amino)-6-chloro-N-(methylsulfonyl) picolinamide]	> 6.60	5.30 to 6.00	–	–
C[C@@H](Nc1ccc(Cl)nc1C(=O)NS(C)(=O)=O)c1cc(C2CC2)cc2c(=O)n(C)c(N3C[C@@H]4[C@H](C3)[C@H]4c3cnn(C)c3)nc12 [Compound 386, 6-chloro-3-(((R)-1-(6-cyclopropyl-3-methyl-2-((1R,5S,6S)-6-(1-methyl-1H-pyrazol-4-yl)-3-azabicyclo[3.1.0]hexan-3-yl)-4-oxo-3,4-dihydroquinazolin-8-yl)ethyl)amino)-N-(methylsulfonyl) picolinamide]	–	–	> 6.60	5.30 to 6.00
Cc1cc([C@@H](C)Nc2ccc(Cl)nc2C(=O)NS(C)(=O)=O)c2nc(N3CCC(c4nnc(C5CCC5)o4)CC3)n(C)c(=O)c2c1 [Compound 629, (R)-6-chloro-3-((1-(2-(4-(5-cyclobutyl-1,3,4-oxadiazol-2-yl)piperidin-1-yl)-3,6-dimethyl-4-oxo-3,4-dihydroquinazolin-8-yl)ethyl)amino)-N-(methylsulfonyl) picolinamide]	> 6.60	5.30 to 6.00	–	–
Cc1cc([C@@H](C)Nc2ccc(Cl)nc2C(=O)NS(C)(=O)=O)c2nc(N3CC[C@@H](Oc4ccc(F)cc4)C3)n(C)c(=O)c2c1 (relative stereo) [Compound 236, 6-chloro-3-(((R)-1-(2-((R*)-3-(4-fluorophenoxy)pyrrolidin-1-yl)-3,6-dimethyl-4-oxo-3,4-dihydroquinazolin-8-yl)ethyl)amino)-N-(methylsulfonyl) picolinamide]	–	–	6.30 to 6.60	5.30 to 6.00
Cc1cc([C@@H](C)Nc2ccc(Cl)nc2C(=O)NS(C)(=O)=O)c2nc(N3CCn4nc(C)cc4C3)n(C)c(=O)c2c1 [Compound 166]	–	–	> 6.60	5.30 to 6.00
